Laboratory results as given in patent US11612165B2, “Pesticide composition for controlling Spodoptera frugiperda” (priority 2020, dated 2023).
Read-outs that look alike come from different tables or passages of the source.

Test system: Spodoptera frugiperda
Test: Indoor toxicity test, immersion method, larvae mortality after 24 h
Assay type: in vivo
Details: single or mixed in different ratios, 3-day-old larvae, 25° C., read-out: LC50 (95% confidence limit)
From the text: Pesticide for test: TC of tea saponin; TC of chlorantraniliprole; TC of tolfenpyrad;
Pest for test: Spodoptera frugiperda (2-3-day-old);
Test method: immersion method: calculating the dosage of the TC according to the active ingredients, preparing the TC into a mother solution, adding clear water to dilute the mother solution to 5-7 gradient concentrations, taking clear water treatment as a control, and setting 3 repetitions for each treatment; selecting 20 larvae with basically the same growth state, putting the larvae into an experiment barrel containing pesticide liquid, covering a gauze (to prevent escape), placing in a 25° C. incubator, investing the death situations after 24 h, recording the number of the dead larvae, and processing data by DPS statistical software.

SMILES: CNC(=O)c1cc(Cl)cc(C)c1NC(=O)c1cc(Br)nn1-c1ncccc1Cl [Chlorantraniliprole (A), Chlorantraniliprole]
- LC50 (chlorantraniliprole (A) and tea saponin (B)): 0.283 µg/mL

SMILES: CCc1nn(C)c(C(=O)NCc2ccc(Oc3ccc(C)cc3)cc2)c1Cl [Tolfenpyrad (A), Tolfenpyrad]
- LC50 (tolfenpyrad (A) and tea saponin (B)): 0.563 µg/mL
